What was measured:
Septoria tritici = assay: In vivo preventive test on Septoria tritici (wheat); conditions: 500 ppm of active ingredient; wheat plants; 24 days after contamination
Procedure, shortened: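 Scipion wheat grown at 22° C, sprayed at 1-leaf stage (10 cm); controls received acetone/tween/DMSO/water without active. Inoculated 24 h later with S. tritici spores (500 000/mL), held 72 h at 18° C, 100% RH, then 21 days at 90% RH. % efficacy vs controls scored 24 days post-inoculation.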

Pyrenophora teres = assay: In vivo preventive test on Pyrenophora teres (barley); conditions: 500 ppm of active ingredient; barley plants; 14 days after contamination
Experimental: In Vivo Preventive Test on Pyrenophora teres (Barley) […] Barley plants (“Plaisant” variety), sown in starter cups on a 50/50 peat soil pozzolana substrate and grown at 22° C., are treated at the 1 leaf stage (10 cm height) by spraying with the active ingredient prepared as described above. Plants, used as controls, are treated with the mixture of acetone/tween/DMSO/water not containing the active material. After 24 hours, the plants are contaminated by spraying the leaves with an aqueous suspension of Pyrenophora teres spores (12 000 spores per mL). The spores are collected from a 12-day-old culture. […] Grading (% of efficacy) is carried out 14 days after the contamination, in comparison with the control plants.

Alternaria brassicae = assay: In vivo preventive test on Alternaria brassicae (leaf spot on radish); conditions: 500 ppm of active ingredient; radish plants; 6 days after contamination
Experimental: In Vivo Preventive Test on Alternaria brassicae (Leaf Spot on Radish) […] Radish plants (“Pernod Clair” variety), sown in starter cups on a 50/50 peat soil pozzolana substrate and grown at 17° C., are treated at the cotyledon stage by spraying with the active ingredient prepared as described above. Plants, used as controls, are treated with the mixture of acetone/tween/DMSO/water not containing the active material. After 24 hours, the plants are contaminated by spraying the cotyledons with an aqueous suspension of Alternaria brassicae spores (50 000 spores per mL). The spores are collected from a 15-day-old culture. The contaminated radish plants are incubated at 20° C. and at 100% relative humidity. Grading (% of efficacy) is carried out 6 days after the contamination, in comparison with the control plants.

[1] = log P by HPLC on a reversed-phase column (C 18), EEC Directive 79/831 Annex V.A8; format: physicochemical; conditions: HPLC on reversed-phase column (C 18), 40° C., 0.1% aqueous formic acid and acetonitrile, linear gradient 10% to 90% acetonitrile
Procedure, shortened: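 Calibration relied on straight-chain alkan-2-ones with 3 to 16 carbon atoms and known log P, with sample values read by linear interpolation of retention time between two adjacent standards. Separation at 40° C used 0.1% aqueous formic acid with acetonitrile rising linearly from 10% to 90%. UV spectra from 200 nm to 400 nm at chromatographic peak maxima gave lambda-max.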

Sphaerotheca fuliginea = assay: In vivo preventive test on Sphaerotheca fuliginea (powdery mildew on cucurbits); conditions: 500 ppm of active ingredient; gherkin plants; 12 days after contamination
Procedure, shortened: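 Gherkin plants ("Vert petit de Paris") grown at 24 °C were sprayed at cotyledon stage Z11; controls received acetone/tween/DMSO/water without active. Inoculation 24 h later by spraying cotyledons with 100 000 spores/mL. Efficacy (%) graded 12 days post-contamination versus controls.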

Uromyces appendiculatus = assay: In vivo preventive test on Uromyces appendiculatus (bean rust); conditions: bean plants, 11 days after contamination
Procedure, shortened: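 Saxa bean plants at 2-leaf stage, grown at 24° C., sprayed preventively with compound; 24 h later inoculated with U. appendiculatus spores (150 000 spores per mL). Percent efficacy graded 11 days after inoculation versus solvent-treated controls.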

Botrytis cinerea = assay: In vivo preventive test on Botrytis cinerea (grey mould); conditions: 500 ppm of active ingredient; gherkin plants; 4 to 5 days after contamination
Experimental: In Vivo Preventive Test on Botrytis cinerea (Grey Mould) […] Gherkin plants (“Vert petit de Paris” variety), sown in starter cups on a 50/50 peat soil pozzolana substrate and grown at 24° C., are treated at the Z11 cotyledon stage by spraying with the active ingredient prepared as described above. Plants, used as controls, are treated with the mixture of acetone/tween/DMSO/water not containing the active material. After 24 hours, the plants are contaminated by spraying the cotyledons with an aqueous suspension of cryopreserved Botrytis cinerea spores (50 000 spores per mL). The spores are suspended in a nutrient solution composed of 10 g/L of PDB, 50 g/L of D-Fructose, 2 g/L of NH4NO3 and 1 g/L of KH2PO4. The contaminated gherkin plants are incubated at 17° C. and at 90% relative humidity. Grading (% of efficacy) is carried out 4 to 5 days after the contamination, in comparison with the control plants.

Puccinia recondita = assay: In vivo preventive test on Puccinia recondita (brown rust on wheat); conditions: 500 ppm of active ingredient; wheat plants; 12 days after contamination
Procedure, shortened: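 Wheat plants ("Scipion") at 1-leaf stage, grown at 22° C, were sprayed with compound, then inoculated 24 h later with Puccinia recondita spores (100 000 spores per mL). Efficacy (%) graded 12 days after inoculation relative to solvent-treated controls.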

[2] = test system: Blumeria graminis f.sp. hordei; assay: In vivo preventive test on Blumeria graminis (barley); conditions: 500 ppm of active ingredient, evaluated 7 days after inoculation
Experimental: In Vivo Preventive Test on Blumeria graminis (Barley) [table] To produce a suitable preparation of active compound, 1 part by weight of active compound or active compound combination is mixed with the stated amounts of solvent and emulsifier, and the concentrate is diluted with water to the desired concentration. To test for preventive activity, young plants are sprayed with the preparation of active compound or active compound combination at the stated rate of application. After the spray coating has been dried, the plants are dusted with spores of Blumeria graminis f.sp. hordei.

`Cn1nc(C(F)F)c(C(=O)N(Cc2cc(F)ccc2-c2coc3ccccc23)C2CC2)c1F` [I.129] showed an Efficacy (Septoria tritici) of 90%, an Efficacy (Pyrenophora teres) of 86% and an Efficacy (Alternaria brassicae) of 97%. The logP [1] was 4.06, the Efficacy (Sphaerotheca fuliginea) was 100% and the Efficacy (Uromyces appendiculatus; 500 ppm of active ingredient) was 96%. For the same molecule, the Efficacy (Botrytis cinerea) was 92%.
For `Cn1nc(C(F)F)c(C(=O)N(Cc2cc(F)ccc2-c2csc3ccccc23)C2CC2)c1F` [I.154], the Efficacy (Septoria tritici) was 96%, the Efficacy (Pyrenophora teres) was 71% and the Efficacy (Alternaria brassicae) was 75%. For the same molecule, the logP [1] was 4.39, the Efficacy (Sphaerotheca fuliginea) was 98% and the Efficacy (Puccinia recondita) was 75%.
For `Cc1cscc1-c1ccccc1CN(C(=O)c1c(C(F)F)nn(C)c1F)C1CC1` [I.105], the Efficacy (Septoria tritici) was 80%, the Efficacy (Pyrenophora teres) was 97% and the logP [1] was 3.90. For the same molecule, the Efficacy [2] was 100%, the Efficacy (Sphaerotheca fuliginea) was 100% and the Efficacy (Uromyces appendiculatus; 500 ppm of active ingredient) was 100%. It also gave an Efficacy (Puccinia recondita) of 100%.
`Cn1nc(C(F)F)c(C(=S)N(Cc2cc(Cl)ccc2-c2cccs2)C2CC2)c1F` [I.74] gave an Efficacy (Alternaria brassicae) of 83%, a logP [1] of 4.69 and an Efficacy (Sphaerotheca fuliginea) of 100%. The Efficacy (Uromyces appendiculatus; 500 ppm of active ingredient) was 100%, the Efficacy (Botrytis cinerea) was 100% and the Efficacy (Puccinia recondita) was 94%.
`Cn1nc(C(F)F)c(C(=O)N(Cc2ccccc2-c2coc3ccccc23)C2CC2)c1F` [I.131] gave an Efficacy (Septoria tritici) of 96%, an Efficacy (Pyrenophora teres) of 93% and an Efficacy (Alternaria brassicae) of 91%. The logP [1] was 3.96, the Efficacy (Sphaerotheca fuliginea) was 98% and the Efficacy (Botrytis cinerea) was 100%. For the same molecule, the Efficacy (Puccinia recondita) was 75%.
In the case of `Cn1nc(C(F)F)c(C(=O)N(Cc2ccccc2-c2ccoc2)C2CC2)c1F` [I.29], the Efficacy (Septoria tritici) is reported as 96%, the Efficacy (Pyrenophora teres) is reported as 93% and the Efficacy (Alternaria brassicae) is reported as 82%. For the same molecule, the logP [1] was 3.23, the Efficacy (Uromyces appendiculatus; 500 ppm of active ingredient) was 100% and the Efficacy (Botrytis cinerea) was 100%. It also gave an Efficacy (Puccinia recondita) of 81%.
For `Cn1nc(C(F)F)c(C(=O)N(Cc2cc(Cl)ccc2-c2ccoc2)C2CC2)c1F` [I.28], the Efficacy (Septoria tritici) was 97%, the Efficacy (Pyrenophora teres) was 79% and the Efficacy (Alternaria brassicae) was 96%. For the same molecule, the logP [1] was 3.64, the Efficacy (Uromyces appendiculatus; 500 ppm of active ingredient) was 99% and the Efficacy (Puccinia recondita) was 94%.
With `Cc1cscc1-c1ccc(Cl)cc1CN(C(=O)c1c(C(F)F)nn(C)c1F)C1CC1` [I.104] the Efficacy (Septoria tritici) was 88%, the Efficacy (Pyrenophora teres) was 70% and the Efficacy (Alternaria brassicae) was 83%. For the same molecule, the logP [1] was 4.34, the Efficacy (Sphaerotheca fuliginea) was 100% and the Efficacy (Uromyces appendiculatus; 500 ppm of active ingredient) was 100%. The Efficacy (Botrytis cinerea) was 93% and the Efficacy (Puccinia recondita) was 95%.
For `Cn1nc(C(F)F)c(C(=O)N(Cc2cc(Cl)ccc2-c2cccs2)C2CC2)c1F` [I.68], the Efficacy (Septoria tritici) was 83%, the Efficacy (Alternaria brassicae) was 71% and the logP [1] was 4.11. It also gave an Efficacy (Sphaerotheca fuliginea) of 94%, an Efficacy (Uromyces appendiculatus; 500 ppm of active ingredient) of 100% and an Efficacy (Puccinia recondita) of 94%.
With `CC(C)c1ccc(-c2ccn(C)c2)cc1CN(C(=O)c1c(C(F)F)nn(C)c1F)C1CC1` [I.50] the Efficacy (Septoria tritici) was 97%, the Efficacy (Pyrenophora teres) was 100% and the Efficacy (Alternaria brassicae) was 96%. The logP [1] was 3.99, the Efficacy (Sphaerotheca fuliginea) was 100% and the Efficacy (Uromyces appendiculatus; 500 ppm of active ingredient) was 99%. The Efficacy (Botrytis cinerea) was 99% and the Efficacy (Puccinia recondita) was 100%.
With `Cc1csc(-c2ccc(F)cc2CN(C(=O)c2c(C(F)F)nn(C)c2F)C2CC2)c1` [I.101] the Efficacy (Septoria tritici) was 100%, the Efficacy (Pyrenophora teres) was 95% and the Efficacy (Alternaria brassicae) was 83%. The logP [1] was 4.09, the Efficacy (Sphaerotheca fuliginea) was 100% and the Efficacy (Uromyces appendiculatus; 500 ppm of active ingredient) was 100%. The Efficacy (Botrytis cinerea) was 99% and the Efficacy (Puccinia recondita) was 100%.
`Cn1nc(C(F)F)c(C(=O)N(Cc2cc(Cl)ccc2-c2coc3ccccc23)C2CC2)c1F` [I.130] gave an Efficacy (Septoria tritici) of 93%, an Efficacy (Pyrenophora teres) of 79% and an Efficacy (Alternaria brassicae) of 96%. It also gave a logP [1] of 4.44, an Efficacy (Sphaerotheca fuliginea) of 100% and an Efficacy (Uromyces appendiculatus; 500 ppm of active ingredient) of 85%. The Efficacy (Puccinia recondita) was 81%.
For `Cn1cc(C(=O)N(Cc2ccccc2-c2cccs2)C2CC2)c(C(F)F)n1` [I.72], the Efficacy (Septoria tritici) was 80%, the Efficacy (Alternaria brassicae) was 70% and the logP [1] was 3.25. It also gave an Efficacy (Sphaerotheca fuliginea) of 90% and an Efficacy (Uromyces appendiculatus; 500 ppm of active ingredient) of 83%.
For `Cc1csc(-c2ccc(Cl)cc2CN(C(=O)c2c(C(F)F)nn(C)c2F)C2CC2)c1` [I.103], the Efficacy (Septoria tritici) was 95%, the Efficacy (Pyrenophora teres) was 95% and the logP [1] was 4.51. It also gave an Efficacy (Sphaerotheca fuliginea) of 100%, an Efficacy (Uromyces appendiculatus; 500 ppm of active ingredient) of 94% and an Efficacy (Botrytis cinerea) of 98%. The Efficacy (Puccinia recondita) was 95%.
`Cc1cscc1-c1ccc(F)cc1CN(C(=O)c1c(C(F)F)nn(C)c1F)C1CC1` [I.102] gave an Efficacy (Septoria tritici) of 95%, an Efficacy (Alternaria brassicae) of 83% and a logP [1] of 3.94. For the same molecule, the Efficacy (Sphaerotheca fuliginea) was 100%, the Efficacy (Uromyces appendiculatus; 500 ppm of active ingredient) was 100% and the Efficacy (Botrytis cinerea) was 94%. For the same molecule, the Efficacy (Puccinia recondita) was 100%.
Work on `Cn1nc(C(F)F)c(C(=O)N(Cc2cc(Cl)ccc2-c2ccsc2Cl)C2CC2)c1F` [I.137] yielded an Efficacy (Septoria tritici) of 97%, an Efficacy (Pyrenophora teres) of 79% and an Efficacy (Alternaria brassicae) of 70%. For the same molecule, the logP [1] was 4.41, the Efficacy (Sphaerotheca fuliginea) was 100% and the Efficacy (Puccinia recondita) was 88%.
For `Cn1nc(C(F)F)c(C(=O)N(Cc2cc(F)ccc2-c2ccsc2Cl)C2CC2)c1F` [I.136], the Efficacy (Septoria tritici) was 93%, the Efficacy (Pyrenophora teres) was 86% and the Efficacy (Alternaria brassicae) was 70%. It also gave a logP [1] of 4.04, an Efficacy (Sphaerotheca fuliginea) of 100% and an Efficacy (Uromyces appendiculatus; 500 ppm of active ingredient) of 100%. For the same molecule, the Efficacy (Puccinia recondita) was 98%.
For `Cn1cc(-c2ccccc2CN(C(=O)c2c(C(F)F)nn(C)c2F)C2CC2)cn1` [I.54], the Efficacy (Septoria tritici) was 100%, the Efficacy (Alternaria brassicae) was 83% and the logP [1] was 2.34. It also gave an Efficacy (Sphaerotheca fuliginea) of 95%, an Efficacy (Uromyces appendiculatus; 500 ppm of active ingredient) of 97% and an Efficacy (Botrytis cinerea) of 97%. The Efficacy (Puccinia recondita) was 80%.
Molecule `Cn1nc(C(F)F)c(C(=O)N(Cc2cc(-c3ccc(Cl)s3)ccc2Cl)C2CC2)c1F` [I.143] has an Efficacy (Septoria tritici) of 100%, an Efficacy (Pyrenophora teres) of 79% and a logP [1] of 4.83. It also gave an Efficacy (Sphaerotheca fuliginea) of 100%, an Efficacy (Uromyces appendiculatus; 100 ppm of active ingredient) of 93% and an Efficacy (Botrytis cinerea) of 98%. The Efficacy (Puccinia recondita) was 88%.
Work on `Cn1cc(C(=O)N(Cc2ccccc2-c2ccc(Cl)s2)C2CC2)c(C(F)F)n1` [I.140] yielded an Efficacy (Septoria tritici) of 96%, an Efficacy (Alternaria brassicae) of 90% and a logP [1] of 3.87. The Efficacy (Uromyces appendiculatus; 500 ppm of active ingredient) was 73%.

— patent US10125126B2, “N-cycloalkyl-N-[(heterocyclylphenyl)methylene]-(thio)carboxamide derivatives” (BAYER CROPSCIENCE AG, priority 2012, dated 2018)
